The results in this text go back to patent publication US20230113609A1, “SSTR5 ANTAGONISTS” (Kallyope, Inc., priority 2019, published 2023).

Where only a bound is given, the exact number is not on record here.

T1 sequence (P35346 whole entry): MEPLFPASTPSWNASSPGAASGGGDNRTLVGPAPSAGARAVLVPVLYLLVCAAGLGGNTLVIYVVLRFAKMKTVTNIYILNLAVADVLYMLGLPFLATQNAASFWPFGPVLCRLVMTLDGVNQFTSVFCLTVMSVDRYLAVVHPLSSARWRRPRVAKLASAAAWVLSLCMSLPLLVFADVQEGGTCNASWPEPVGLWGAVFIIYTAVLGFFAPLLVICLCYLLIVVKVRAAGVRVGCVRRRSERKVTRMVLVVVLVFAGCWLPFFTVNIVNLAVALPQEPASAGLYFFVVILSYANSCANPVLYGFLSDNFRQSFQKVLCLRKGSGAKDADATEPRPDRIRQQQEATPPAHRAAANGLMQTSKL

This experiment concerns the target T1, human SSTR5 (Homo sapiens, UniProt P35346).
T1 construct: expressed in transfected cells
In words: Inositol phosphate accumulation assay (IP1 HTRF, antagonist mode). It is filed as cell-based. Particulars: CHO-K1 cells co-expressing human SSTR5 with Gqi5, SST28 agonist at concentration generating 90% of full activation. An outline of the steps:
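CHO-K1 cells stably co-expressing human SSTR5 and chimeric Gqi5 were pre-incubated with compound 15 minutes at 37° C, then stimulated with SST28 (30 nM as added, about EC90) for 90 minutes. IP1 read by HTRF (665/620 nm). % inhibition normalized to Max/Min controls; IC50 and maximal inhibition from 4-parameter fit.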
A general note: Time-resolved FRET reads energy transfer from a long-lived donor to a nearby acceptor.
What is called IC50 is the concentration that inhibits the measured activity by half. `CCOc1cc(C(=O)OC)c(C2CC2)cc1CN1CCC2(CC1)CN(c1ccc(C(=O)NCCCS(=O)(=O)O)cc1)C(=O)N2` [Example 78, 3-(4-(8-(5-cyclopropyl-2-ethoxy-4-(methoxycarbonyl)benzyl)-2-oxo-1,3,8-triazaspiro[4.5]decan-3-yl)benzamido)propane-1-sulfonic acid]: the IC50 was above 5000 nM. The same measure for `CCOc1cc(C(=O)OC)c(C2CC2)cc1CN1CCC2(CC1)CC(=O)N(c1ccc(C(=O)NCCCO)cc1)C2` [Example 27, methyl 2-cyclopropyl-5-ethoxy-4-((2-(4-((3-hydroxypropyl)carbamoyl)phenyl)-3-oxo-2,8-diazaspiro[4.5]decan-8-yl)methyl)benzoate]: above 5000 nM.

In turn, `CCOc1cc(-c2nc(C)no2)c(C2CC2)cc1CN1CCC2(CC1)CN(c1ccc(C(=O)NCCCS(=O)(=O)O)cc1)C(=O)N2` [Example 68, 3-(4-(8-(5-cyclopropyl-2-ethoxy-4-(3-methyl-1,2,4-oxadiazol-5-yl)benzyl)-2-oxo-1,3,8-triazaspiro[4.5]decan-3-yl)benzamido)propane-1-sulfonic acid] yielded an IC50 of 100 to 1000 nM.

In the case of `CCOc1cc(CN2CCC3(CC2)CN(c2ccc(C(=O)NCCCC(=O)NC(CO)(CO)CO)cc2)C(=O)O3)cc(OCC)c1-c1ccc(F)cc1` [Example 5], the IC50 lay in the range of 100 to 1000 nM. The same measure for `CCOc1cc(C(=O)OC)c(C2CC2)cc1CN1CCC2(CC1)CC(=O)N(c1ccc(C(=O)NC(CO)(CO)CO)cc1)C2` [Example 21, methyl 2-cyclopropyl-4-((2-(4-((1,3-dihydroxy-2-(hydroxymethyl)propan-2-yl)carbamoyl)phenyl)-3-oxo-2,8-diazaspiro[4.5]decan-8-yl)methyl)-5-ethoxybenzoate]: above 5000 nM; for `CCOc1cc(C(=O)OC)c(C2CC2)cc1CN1CCC2(CC1)CC(=O)N(c1ccc(C(=O)NCCCN)cc1)C2` [Example 46, methyl 4-((2-(4-((3-aminopropyl)carbamoyl)phenyl)-3-oxo-2,8-diazaspiro[4.5]decan-8-yl)methyl)-2-cyclopropyl-5-ethoxybenzoate]: above 5000 nM. To `CCOc1cc(-c2ccc(F)cc2)c(C2CC2)cc1CN1CCC2(CC1)CN(c1ccc(C(=O)NCCOCCO)cc1)C(=O)O2` [Example 61, 4-(8-((2-cyclopropyl-5-ethoxy-4′-fluoro-[1,1′-biphenyl]-4-yl)methyl)-2-oxo-1-oxa-3,8-diazaspiro [4.5]decan-3-yl)-N-(2-(2-hydroxyethoxy)ethyl)benzamide] belongs at most 100 nM. Take `CCOc1cc(CN2CCC3(CC2)CN(c2ccc(C(=O)NCCCS(=O)(=O)O)cc2)C(=O)O3)cc(OCC)c1-c1ccc(F)cc1` [Example 11, 3-(4-(8-((2,6-diethoxy-4′-fluoro-[1,1′-biphenyl]-4-yl)methyl)-2-oxo-1-oxa-3,8-diazaspiro[4.5]decan-3-yl)benzamido)propane-1-sulfonic acid]: the IC50 was at most 100 nM. `CCOc1cc(C(=O)OC)c(C2CC2)cc1CN1CCC2(CC1)CC(=O)N(c1ccc(C(=O)N3C[C@H](O)[C@@H](O)C3)cc1)C2` [Example 43, methyl 2-cyclopropyl-4-((2-(4-((3S,4S)-3,4-dihydroxypyrrolidine-1-caibonyl)phenyl)-3-oxo-2,8-diazaspiro[4.5]decan-8-yl)methyl)-5-ethoxy benzoate] gave an IC50 above 5000 nM. The same measure for `CCOc1cc(C(=O)OC)c(C2CC2)cc1CN1CCC2(CC1)CN(c1ccc(C(=O)NCCOCCO)cc1)C(=O)N2` [Example 76, methyl 2-cyclopropyl-5-ethoxy-4-((3-(4-((2-(2-hydroxyethoxy)ethyl)carbamoyl)phenyl)-2-oxo-1,3,8-triazaspiro[4.5]decan-8-yl)methyl)benzoate]: 100 to 1000 nM; for `CCOc1cc(CN2CCC3(CC2)CN(c2ccc(C(=O)NC[C@H](O)[C@@H](O)[C@H](O)[C@H](O)CO)cc2)C(=O)O3)cc(CO)c1-c1ccc(F)cc1` [Example 3, 4-(8-((2-ethoxy-4′-fluoro-6-(hydroxymethyl)-[1,1′-biphenyl]-4-yl)methyl)-2-oxo-1-oxa-3,8-diazaspiro[4.5]decan-3-yl)-N-((2S,3R,4R,5R)-2,3,4,5,6-pentahydroxyhexyl)benzamide]: above 5000 nM.
